Assay results published in paper PMC6639268 (Journal of Virology, 2019).
Read-outs that look alike come from different tables or passages of the source.

Columns and labels:
[1] = test system: EBOV (HIV-1/EBOV-GP) pseudotyped virus; conditions: for IC50: read-out: IC50, Pseudotyped (no detergent)
[2] = test system: EBOV trVLP; experiment: microbe, parasite or virus in culture; conditions: Zaire ebolavirus, HEK-293T, read-out: IC50, trVLP
[3] = test system: EBOV (HIV-1/EBOV-GP) pseudotyped virus; experiment: microbe, parasite or virus in culture; conditions: Zaire ebolavirus, HEK-293T
[4] = in vitro; conditions: human, CC50, Pseudotyped
[5] = in vitro; conditions: human
[6] = test system: EBOV trVLP
[7] = test system: VSV (HIV-1/VSV-G) pseudotyped virus; format: cell-based, vesicular stomatitis virus
[8] = test system: 293T cells; conditions: for Cytotoxicity in single-concentration screen: 25 μM; for CC50: human
[9] = test system: steroidogenic acute regulatory protein; conditions: cited from earlier work
[10] = test system: EBOV-pseudotyped virus; format: cell-based, Zaire ebolavirus
[11] = read-out: IC50, Pseudotyped (no detergent)

SMILES | SI (CC50/IC50), Pseudotyped [1] | IC50 [1] | IC50 [2] | IC50 [3, 11] | IC50 ([3]; read-out: IC50 with Tween 80) | CC50 [4] | CC50 [5] | SI (CC50/IC50), trVLP [6] | Inhibitory activity against VSV-G-pseudotyped virus entry [7] | IC50 ([6]; read-out: IC50, trVLP) | Impact on cell viability (cytotoxicity curves) [8] | Normalized luciferase signal (infectivity signal per cell as a fraction of the maximum) [1] | Cytotoxicity in single-concentration screen [8] | CC50 [8] | Activity on steroidogenic acute regulatory protein [9] | Time point up to which maximum inhibition occurred [10]
COc1ccc(OC)c(CN2CCC[C@@H](c3ccnc(SCCN4CCCC4)n3)C2)c1 [Compound S36] | 10.6 | 6.29 ± 1.55 µM | 3.19 µM | < 10 µM | 4.83 ± 1.11 µM | 66.9 ± 33.3 µM | 16.5 µM | 5.2 | – | – | – | – | – | – | – | –
COc1ccc(CNCc2cc(F)cc(F)c2)cc1OC[C@H](O)CN1CCN(C)CC1 [Compound S29] | 4.4 | 25.7 ± 9 µM | > 20 µM | ~26 µM | 5.03 ± 3.62 µM | 113 ± 82.2 µM | 75.1 ± 24.4 µM | 2.9 | least average inhibitory activity against VSV-G | 26.3 ± 17.1 µM | – | – | – | – | – | –
CN(C)[C@@H]1CCN(CC(c2ccccc2)c2ccccc2)C[C@@H]1CCC(=O)NCc1ccc2c(c1)OCO2 [Compound S31] | 8.9 | 4.77 µM | 2.41 µM | < 5 µM | 4.68 ± 0.36 µM | 42.4 ± 15.4 µM | 26.7 µM | 11.1 | least average inhibitory activity against VSV-G | – | – | – | – | – | – | –
CN(Cc1cccc(OCCN2CCN(S(=O)(=O)C3CCCCC3Cl)CC2)c1)CC1CCC(=O)N1 (stereo not drawn) [Compound I53] | 3.0 | – | 13.6 ± 12.2 µM | 36.7 µM | 35.3 µM | 110 ± 58 µM | 47.5 ± 31.8 µM | 3.5 | – | – | – | – | – | – | – | –
CC(C)N[C@H]1C[C@@H](C(=O)CN2CCN(c3cccc(C(F)(F)F)c3)CC2)N(Cc2ccccc2)C1 [Compound S33] | 5.0 | 5.85 ± 5.2 µM | 3.06 µM | < 10 µM | 8.12 ± 2.37 µM | 29 ± 12.4 µM | 17.5 µM | 5.7 | – | – | – | – | – | – | – | –
CCN1CCC[C@@H]1CN(CC1CCN(COC)CC1)C(=O)CCc1ccc(F)cc1 [Compound S42] | – | – | 11.1 ± 12.9 µM | 11.6 ± 9.95 µM | 36.5 ± 16.6 µM | – | 124 ± 71.2 µM | 11.2 | – | – | minimal impact on cell viability | – | – | – | – | –
Cc1ccc(C(=O)N/C(=C/c2ccc(-c3ccc(Br)cc3)o2)C(=O)NCCCN(C)C)cc1 [Compound I01] | 8.2 | – | 1.1 ± 0.99 µM | – | 2.48 ± 1.35 µM | 11 to 15 µM | 9.72 ± 3.23 µM | 8.8 | – | – | – | most activity | most cytotoxic | 14.6 ± 5.86 µM | nonspecific inhibitor | –
CN1CCCC(CNC(=O)c2cc(NCc3ccccc3F)cc(S(=O)(=O)CNC(C)(C)C)c2)C1 (stereo not drawn) [Compound S58] | – | – | 4.08 ± 0.88 µM | 19.5 ± 18.9 µM | 40.5 ± 24.4 µM | – | 105 ± 57.1 µM | 25.8 | least average inhibitory activity against VSV-G | – | minimal impact on cell viability | – | – | – | – | –
CCOc1ccc([C@@H](O)Cn2c(=N)n(CCN3CCCCC3)c3ccccc32)cc1 [Compound S03] | – | 5.79 ± 6.7 µM | 4.04 µM | < 10 µM | 5.21 µM | 80 ± 45.5 µM | 57.6 ± 24.2 µM | 14.3 | – | – | – | – | – | – | – | –
CCOC(=O)[C@H]1O[C@@H]1C(=O)N[C@@H](CC(C)C)C(=O)NCCC(C)C [Compound E64d, E64d] | – | – | – | – | – | – | – | – | – | – | – | – | – | – | – | ≤ 80 min
CNC1CCN(c2nc3cc(OC)ccc3cc2CNCCc2ccc(OC)cc2)CC1 [Compound S49] | – | 5.06 µM | 3.81 ± 3.16 µM | < 10 µM | 17.8 ± 10.6 µM | 66.6 ± 34 µM | 22.4 µM | 5.9 | – | – | – | – | – | – | – | –
COc1ccc(CN2CCOc3cc(O[C@H]4CCCN(C)C4)cc(-c4ccc(C)s4)c3C2)c(O)c1 [Compound I49] | 3.8 | 2.91 ± 0.63 µM | 2.67 ± 1.49 µM | < 5 µM | 3.12 ± 0.68 µM | 11 to 15 µM | – | – | least average inhibitory activity against VSV-G | – | – | most activity | most cytotoxic | 11 ± 6.46 µM | – | –
